Reference: patent US6403532B1, “Herbicidal synergistic composition, and method of controlling weeds” (Syngenta Crop Protection, Inc., priority 1995, dated 2002)

What was measured:
Assay type in all cases: in vivo
[1] = system: Heterantera; test: Herbicidal activity in paddy rice (transplanted), run-in method: Heterantera; conditions: 25 days after application
Description: (§1) A synergistic effect is always present when the activity of the active ingredient combination I and II, and/or III, and/or IV and/or V exceeds the total of the activity of the active ingredients applied singly.
(§2) The expected herbicidal activity Ae for a given combination of two herbicides can be calculated as follows (cf. COLBY, S. R., “Calculating synergistic and antagonistic response of herbicide combinations”, Weeds 15, pages 20-22, 1967):
(§3) X=per cent herbicidal activity in the treatment with the compound of formula I using a rate of application of p kg per hectare in comparison with untreated control (=0%).
(§4) Y=per cent herbicidal activity in the treatment with the compound of formulae II to V using a rate of application of q kg per hectare in comparison with untreated control.
(§5) Ae=expected herbicidal activity (per cent herbicidal activity comparison with the untreated control) after treatment with the compounds of formulae I and II to V at a rate of application of p+q kg of active ingredient per hectare.
(§6) If the activity actually observed exceeds the expected value Ae, synergism is present.
(§7) Herbicidal Activity in Paddy Rice (transplanted):
(§8) The test plants are sown or planted in standard soil in shallow plastic containers under greenhouse conditions. The containers are then filled with water to soil level. After 3 days, the water level is raised by 2 cm, and the test substances are applied in the form of an aqueous suspension (Formulation Example F7, c)) by the run-in method (application into the water). The test plants are then grown on in the greenhouse under optimal conditions. 25 days after application, the test is evaluated using a % scale (100%=complete damage, 0%=no activity).
(§9) Test plants: transplanted rice, Sagittaria pygmaea, Scirpus juncoides and Heterantera.

[2] = system: transplanted rice; test: Herbicidal activity in paddy rice (transplanted), run-in method: crop plant tolerance
Procedure: as §7, §8, §9

[3] = system: Sagittaria pygmaea; test: Herbicidal activity in paddy rice (transplanted), run-in method: Sagittaria pygmaea; conditions: 25 days after application
Description: as §1, §2, §3, §4, §5, §6, §7, §8, §9
Table B1: Experiments in transplanted rice with Sagittaria pygmaea, using the run-in method

[4] = system: Scirpus juncoides; test: Herbicidal activity in paddy rice (transplanted), run-in method: Scirpus juncoides; conditions: 25 days after application
Description: as §1, §2, §3, §4, §5, §6, §7, §8, §9

[5] = 250 g of active ingredient/ha, run-in method, 25 days after application
[6] = 60 g of active ingredient/ha, run-in method, 25 days after application
[7] = 500 g of active ingredient/ha, run-in method, 25 days after application

Q: How did the “Weed Heterantera” value ([1]; 125 g of active ingredient/ha) turn out when `CCCCOC(=O)[C@@H](C)Oc1ccc(Oc2ccc(C#N)cc2F)cc1` [3.1, butyl (R)-2-[4-(4-cyano-2-fluorophenoxy)phenoxy]propionate] was run?
A: Its value is 0%.

Q: And the “Weed Heterantera” value ([1]; 250 g of active ingredient/ha)?
A: The value was 0%.

Q: And the “Crop plant transplanted rice” value ([2]; 125 g of active ingredient/ha, run-in method, 25 days after application)?
A: The value was 0%.

Q: And the “Crop plant transplanted rice” value [2, 5]?
A: Its value is 0%.

Q: And the “Weed Sagittaria pygm.” value ([3]; 125 g of active ingredient/ha)?
A: The value was 0%.

Q: What about the “Weed Sagittaria pygm.” value ([3]; 250 g of active ingredient/ha) of the same molecule?
A: Its value is 0%.

Q: What about the “Weed Scirpus junc.” value ([4]; 125 g of active ingredient/ha) of the same molecule?
A: The value was 0%.

Q: What about the “Weed Scirpus junc.” value ([4]; 250 g of active ingredient/ha) of the same molecule?
A: The value was 0%.

Q: What does the source list for `COc1cc(OC)nc(Sc2cccc3c2C(=O)OC3C)n1` (stereo not shown) [I]?
A: Weed Heterantera ([1]; 60 g of active ingredient/ha): 0%; Weed Heterantera ([1]; 120 g of active ingredient/ha): 0%; Weed Heterantera ([1]; 240 g of active ingredient/ha): 70%; Crop plant transplanted rice [2, 6]: 0%; Crop plant transplanted rice ([2]; 120 g of active ingredient/ha, run-in method, 25 days after application): 0%; Crop plant transplanted rice ([2]; 240 g of active ingredient/ha, run-in method, 25 days after application): 0%; Weed Sagittaria pygm. ([3]; 60 g of active ingredient/ha): 0%; Weed Sagittaria pygm. ([3]; 120 g of active ingredient/ha): 0%; Weed Sagittaria pygm. ([3]; 240 g of active ingredient/ha): 0%; Weed Scirpus junc. ([4]; 60 g of active ingredient/ha): 0%; Weed Scirpus junc. ([4]; 120 g of active ingredient/ha): 50%; Weed Scirpus junc. ([4]; 240 g of active ingredient/ha): 92%

Q: With `COCCOc1ccccc1S(=O)(=O)NC(=O)Nc1nc(OC)nc(OC)n1` [1.3] as the molecule, how does the “Crop plant transplanted rice” value ([2]; 6 g of active ingredient/ha, run-in method, 25 days after application) read?
A: The value was 0%.

Q: What about the “Crop plant transplanted rice” value ([2]; 12 g of active ingredient/ha, run-in method, 25 days after application) of the same molecule?
A: The value was 0%.

Q: And the “Crop plant transplanted rice” value ([2]; 24 g of active ingredient/ha, run-in method, 25 days after application)?
A: Its value is 15%.

Q: What about the “Weed Sagittaria pygm.” value ([3]; 6 g of active ingredient/ha) of the same molecule?
A: The value was 70%.

Q: And the “Weed Sagittaria pygm.” value ([3]; 12 g of active ingredient/ha)?
A: The value was 75%.

Q: And the “Weed Sagittaria pygm.” value ([3]; 24 g of active ingredient/ha)?
A: Its value is 94%.

Q: With `CCC(=O)Nc1ccc(Cl)c(Cl)c1` [2.2, 3′,4′-dichloropropionanilide] as the molecule, how does the “Weed Heterantera” value ([1]; 1000 g of active ingredient/ha) read?
A: Its value is 0%.

Q: What about the “Crop plant transplanted rice” value [2, 7] of the same molecule?
A: The value was 0%.

Q: And the “Crop plant transplanted rice” value ([2]; 1000 g of active ingredient/ha, run-in method, 25 days after application)?
A: The value was 0%.

Q: What about the “Weed Sagittaria pygm.” value ([3]; 500 g of active ingredient/ha) of the same molecule?
A: The value was 0%.

Q: What about the “Weed Sagittaria pygm.” value ([3]; 1000 g of active ingredient/ha) of the same molecule?
A: Its value is 0%.

Q: And the “Weed Scirpus junc.” value ([4]; 500 g of active ingredient/ha)?
A: Its value is 0%.

Q: And the “Weed Scirpus junc.” value ([4]; 1000 g of active ingredient/ha)?
A: Its value is 35%.

Q: Which “Weed Heterantera” value ([1]; 8 g of active ingredient/ha) does the source give for `CCOC(=O)c1cnn(C)c1S(=O)(=O)NC(=O)Nc1nc(OC)cc(OC)n1` [1.2] here?
A: The value was 0%.

Q: And the “Weed Heterantera” value ([1]; 15 g of active ingredient/ha)?
A: The value was 0%.

Q: And the “Weed Heterantera” value ([1]; 30 g of active ingredient/ha)?
A: Its value is 0%.

Q: What about the “Crop plant transplanted rice” value ([2]; 8 g of active ingredient/ha, run-in method, 25 days after application) of the same molecule?
A: The value was 0%.

Q: And the “Crop plant transplanted rice” value ([2]; 15 g of active ingredient/ha, run-in method, 25 days after application)?
A: The value was 0%.

Q: And the “Crop plant transplanted rice” value ([2]; 30 g of active ingredient/ha, run-in method, 25 days after application)?
A: The value was 0%.

Q: And the “Weed Scirpus junc.” value ([4]; 15 g of active ingredient/ha)?
A: Its value is 0%.

Q: And the “Weed Scirpus junc.” value ([4]; 30 g of active ingredient/ha)?
A: The value was 20%.

Q: For `CN(C(=O)COc1nc2ccccc2s1)c1ccccc1` [2.1, 2-(1,3-benzothiazol-2-yloxy)-N-methylacetanilide], which “Weed Heterantera” value ([1]; 500 g of active ingredient/ha) is on record?
A: Its value is 40%.

Q: What about the “Weed Heterantera” value ([1]; 1000 g of active ingredient/ha) of the same molecule?
A: The value was 50%.

Q: And the “Crop plant transplanted rice” value ([2]; in vivo)?
A: The value was 0%.

Q: And the “Weed Sagittaria pygm.” value ([3]; 500 g of active ingredient/ha)?
A: Its value is 0%.

Q: And the “Weed Sagittaria pygm.” value ([3]; 1000 g of active ingredient/ha)?
A: Its value is 0%.

Q: What about the “Weed Scirpus junc.” value ([4]; 125 g of active ingredient/ha) of the same molecule?
A: The value was 0%.

Q: What about the “Weed Scirpus junc.” value ([4]; 250 g of active ingredient/ha) of the same molecule?
A: The value was 65%.

Q: And the “Weed Scirpus junc.” value ([4]; 500 g of active ingredient/ha)?
A: Its value is 94%.

Q: How did the “Weed Heterantera” value ([1]; 60 g of active ingredient/ha) turn out when `CCCOCCN(C(=O)CCl)c1c(CC)cccc1CC` [2.3, 2-chloro-2′,6′-diethyl-N-(2-propoxyethyl)acetanilide] was run?
A: The value was 0%.

Q: What about the “Weed Heterantera” value ([1]; 375 g of active ingredient/ha) of the same molecule?
A: The value was 80%.

Q: And the “Crop plant transplanted rice” value [2, 6]?
A: Its value is 0%.

Q: What about the “Crop plant transplanted rice” value [2, 5] of the same molecule?
A: The value was 0%.

Q: What about the “Crop plant transplanted rice” value ([2]; 375 g of active ingredient/ha, run-in method, 25 days after application) of the same molecule?
A: Its value is 0%.

Q: What about the “Crop plant transplanted rice” value [2, 7] of the same molecule?
A: Its value is 0%.

Q: And the “Weed Sagittaria pygm.” value ([3]; 250 g of active ingredient/ha)?
A: Its value is 25%.

Q: What about the “Weed Sagittaria pygm.” value ([3]; 375 g of active ingredient/ha) of the same molecule?
A: The value was 55%.

Q: What about the “Weed Sagittaria pygm.” value ([3]; 500 g of active ingredient/ha) of the same molecule?
A: Its value is 50%.

Q: `Clc1cc(Cl)nc(-c2ccccc2)n1` [VI, 4,6-dichloro-2-phenylpyrimidine] was tested. Which “Weed Heterantera” value ([1]; 125 g of active ingredient/ha) did it give?
A: The value was 0%.

Q: What about the “Crop plant transplanted rice” value ([2]; in vivo) of the same molecule?
A: Its value is 0%.

Q: What about the “Weed Sagittaria pygm.” value ([3]; 125 g of active ingredient/ha) of the same molecule?
A: Its value is 0%.
